# From paper PMC2825241, “Uptake of purines in Plasmodium falciparum-infected human erythrocytes is mostly mediated by the human Equilibrative Nucleoside Transporter and the human Facilitative Nucleobase Transporter” (2010)
# Target: T1, human equilibrative nucleoside transporter (hENT1) (Homo sapiens, UniProt Q99808)
# T1 construct: gene SLC29A1; endogenous transporter in intact human erythrocytes
# T1 sequence (Q99808 2-456): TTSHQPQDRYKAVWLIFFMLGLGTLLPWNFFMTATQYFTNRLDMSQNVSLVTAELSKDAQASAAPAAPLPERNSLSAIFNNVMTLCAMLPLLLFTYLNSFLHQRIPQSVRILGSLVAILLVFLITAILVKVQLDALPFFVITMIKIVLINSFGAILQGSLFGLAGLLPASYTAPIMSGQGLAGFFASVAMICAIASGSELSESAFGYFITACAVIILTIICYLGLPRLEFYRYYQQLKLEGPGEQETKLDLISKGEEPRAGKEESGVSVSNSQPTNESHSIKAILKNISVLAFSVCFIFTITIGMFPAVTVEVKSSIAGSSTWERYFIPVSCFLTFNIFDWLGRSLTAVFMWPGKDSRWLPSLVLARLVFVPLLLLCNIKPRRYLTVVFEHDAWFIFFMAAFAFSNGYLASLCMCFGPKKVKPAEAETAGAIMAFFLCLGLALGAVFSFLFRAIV
# Test: saturable [3H]-uridine uptake into uninfected human erythrocytes (Km)
# Type: cell-based
structure (smiles),measurement,value
O=c1ccn([C@@H]2O[C@H](CO)[C@@H](O)[C@H]2O)c(=O)[nH]1 [uridine],Km,177 ± 30 µM
